In patent US20200375929A1, “METHODS AND COMPOSITIONS FOR THE TREATMENT OF DISEASES ASSOCIATED WITH CANCER, INFLAMMATION, OR IMMUNE RESPONSE” (Washington University, priority 2017, published 2020):
Entries after “also recorded” stand apart in the source; their conditions may differ.

How the values were obtained:
Nfkbiz 3′UTR = Nfkbiz 3′UTR GFP reporter in BV2 cells (flow cytometry); type: cell-based, mouse; conditions: DI 250 μM 12 h, LPS 1 h
Method: Mouse Nfkbiz 3′UTR Lenti-reporter-GFP (#MT-m64048) vector or pLenti-UTR-GFR-Blank vector (#m014) were purchased from Applied Biological Materials. For lentiviral production transfection mixture of 1.5-mL of Opti-MEM medium (Invitrogen), 18 μg of psPAX2 (gift from Didier Trono, Addgene plasmid #12260), 13 μg of pCMV-V-SVG (gift from Bob Weinberg, Addgene plasmid #8454), 20 μg of lentiviral construct, and 105 μL of polyethylenimine (1 mg/mL; 25 kDa; linear form; Polysciences). The mixture was incubated at room temperature for 20 min and added to HEK-293T cells (ATCC) cultured in DMEM supplemented with 10% FBS, 2 mM L-glutamine and 100 U/mL penicillin-streptomycin in 150-cm2 tissue culture flask. 48 h later, virus-containing medium was filtered through […] pore-size cellulose acetate filters and used directly for BV2 transduction in the presence of polybrene (8 μg/mL, Millipore). […]
For ROS measurements, cells were treated with DI (250 μM), loaded with 10 μM CM-H2DCFDA (Invitrogen) at RT for 30 min in Hank's balanced salt solution (HBSS). After incubation, cell were rinsed with warm HBSS, harvested and directly analyzed. […] For Nfkbiz 3′UTR reporter analysis GFP signal was determined in live cells. […] Cells were acquired on CantoII or LSRII flow cytometers (Becton Dickinson), and data were analyzed with FlowJo v.9.5.2 software (Tree Star). […]

STAT3 = STAT3 activation in LPS-stimulated BMDMs (western blot); type: cell-based, mouse
Method: BMDM were prepared from 6- to 12-week-old mice as described 1 and cultured in RMPI-1640 medium supplemented with 10% fetal bovine serum (FBS), 2 mM L-glutamine, and 100 U/mL penicillin-streptomycin and mouse recombinant M-CSF ([…], Peprotech). For experiments, cells were seeded at concentration 10^6 cells/mL in tissue culture plates of various formats. The cells were treated with DI (250 μM (unless stated otherwise), cat #592498, Sigma), DMF (50 μM (unless stated otherwise), cat #242926, Sigma), 3-(ethoxycarbonyl)but-3-enoic acid (3MI, 5 μM, Aris Pharmaceuticals Inc.), 4-ethoxy-2-methylene-4-oxobutanoic acid (MI, Aris Pharmaceuticals Inc.) for 12 h and activated with lipopolysaccharide (LPS; 100 ng/mL; E. coli 0111:B4, Sigma) for 1 h or as indicated. In some experiments cells were stimulated with combination of LPS (20 ng/mL) and IFN-γ (50 ng/mL; Peprotech). In some experiments cells were treated with α-tocopherol (AT, 10 μM; Sigma), MitoTEMPO (MT, 500 μM; Sigma), N-acetylcysteine (NAC, 1 mM, Sigma), ethylester of GSH (EtGSH; 1 mM, Santa Cruz) or buthionene sulfoximine (BSO, 500 μM, Sigma) alone or in combination with DI for 12 h. […]
Cells were lysed in RIPA Lysis Buffer System (Santa Cruz) and heat-denatured at 95° C. for 5 min in reducing sample buffer (BioRad). […] Non-specific binding was blocked with 5% skim milk (or 5% BSA when phospho-proteins were analyzed), and membranes were probed with primary antibodies specific to Nrf2 (#12721), HO-1 (#70081), IκBζ (mouse specific, #93726), IκBζ(#9244), ATF3 (#D2Y5W), IRAK1 (#4504; sensitivity of IRAK1 detection diminishes upon IRAK1 K63 ubiquitination), phospho-IKK (Ser176/180, #2697), p62/SQSTM1 (#5114), phospho-eIF2α (Ser51, #9721), eIF2α (#5324) from Cell Signaling; GAPDH (sc-25778), IκBα (sc-1643), ATF3 (sc-188), SDHA (sc-166909) from Santa Cruz; NQO1 (ab28947) from Abeam, followed by incubation with anti-rabbit-HRP (1:10,000; sc-2030) or anti-mouse-HRP (1:10,000; sc-2031) from Santa Cruz and Clarity western ECL substrate (Bio-Rad). […]

[1] = tested on: human primary keratinocytes; test: Viability of primary keratinocytes (propidium iodide, flow cytometry); type: cell-based; conditions: DI 12 h
Method: For ROS measurements, cells were treated with DI (250 μM), loaded with 10 μM CM-H2DCFDA (Invitrogen) at RT for 30 min in Hank's balanced salt solution (HBSS). After incubation, cell were rinsed with warm HBSS, harvested and directly analyzed. Mean fluorescent intensity (MFI) of living cells is shown. For Nfkbiz 3′UTR reporter analysis GFP signal was determined in live cells. For analysis of cell viability cells were stained with propidium iodide (1 μg/mL) and percentage of negative cells was plotted. Cells were acquired on CantoII or LSRII flow cytometers (Becton Dickinson), and data were analyzed with FlowJo v.9.5.2 software (Tree Star). For gating strategy see e.g., FIG. 25.
Primary keratinocytes were isolated from C57BL/6 WT newborn mice or human foreskins as previously described. 2×10^5 cells in 1 ml of KFSM media (Gibco cat #10725-018) [Ca2+ at 0.05 mM (mouse) and 0.09 mM (human)] were plated in 12-well tissue culture plates. After 2-3 days of cultivation, mouse or human cells were treated with DI for 12 hours and then stimulated with mouse recombinant IL-17A (100 ng/mL; cat #421-ML, R&D Systems) or human recombinant IL-17A (100 ng/mL; cat #7955-IL, R&D Systems) for 4 h or as indicated.

[2] = tested on: LY1 and LY7 (GCB) cell lines; test: DLBCL cell viability, resazurin assay, GCB subtype; type: cell-based; conditions: LY1 and LY7, 4 days, refreshed daily; DI 125-250 μM

C=C(CC(=O)OC)C(=O)OC [DI, dimethyl itaconate]
Nfkbiz 3′UTR reporter GFP expression (Nfkbiz 3′UTR): did not affect expression of reporter gene GFP; also recorded: not due to regulation of Nfkbiz 3′UTR | STAT3 activation (Y705 phosphorylation) (STAT3; BMDMs, 12 h pretreatment): inhibits STAT3 activation | inhibition of STAT3 activation, Nrf2 KO compared with WT (STAT3; Nrf2 KO BMDMs, DI 250 μM 12 h): no differences in extent of inhibition of STAT3 activation | viability of primary keratinocytes [1]: not affected | growth / toxicity, GCB DLBCL [2]: not GCB cells
